“And” between values parts separate entries of the source, which are not always exact repeats. Identical values can stand only once.
Assays:
[1] = target: T1, purified porcine brain tubulin (Sus scrofa, UniProt P02554); assay: Biolayer interferometry (BLI) binding to tubulin; details: immobilized tubulin, 1:1 binding model, mean ± SD, triplicate
T1 construct: purified porcine brain tubulin; from tissue; host or cells: porcine brain
Experimental: To detect the direct interaction between the synthesized compounds and tubulin, biolayer interferometry (BLI) experiments were performed using purified porcine brain tubulin immobilized on Super Streptavidin (SSA) biosensor [30]. […] Association and dissociation kinetics were monitored in real time, and equilibrium dissociation constants (KD) were determined by global fitting of the sensorgrams to a 1:1 binding model. All measurements were conducted in triplicate, and results are reported as mean ± SD.
BLI assays were performed on an Octet RED96 instrument (FortéBio, Pall Life Sciences, Menlo Park, CA, USA) at 25 °C in PBS buffer supplemented with 0.02% (v/v) Tween-20 as the running buffer. Biotinylated tubulin proteins (3 μg/mL) were immobilized onto Super Streptavidin (SSA) biosensors. Association and dissociation were monitored for 60 s each. […] Reference subtraction was performed using sensors incubated in running buffer without protein loading to correct for baseline drift. Data were analyzed using Octet Data Analysis software (version 9.0), and equilibrium dissociation constants (KD) were determined by fitting the curves to a 1:1 binding model. All measurements were performed in triplicate, and results are reported as mean ± SD.
BLI assays were performed on an Octet RED96 instrument (FortéBio, Pall Life Sciences) at 25 °C in PBS buffer supplemented with 0.02% (v/v) Tween-20 as the running buffer. Biotinylated tubulin proteins (3 μg/mL) were immobilized onto Super Streptavidin (SSA) biosensors. Association and dissociation were monitored for 60 s […]
Reference subtraction was performed using sensors incubated in running buffer without protein loading to correct for baseline drift. Data were analyzed using Octet Data Analysis software (version 9.0), and equilibrium dissociation constants (KD) were determined by fitting the curves to a 1:1 binding model. All measurements were performed in triplicate, and results are reported as mean ± SD.

[2] = system: B16F10 melanoma tumors in BALB/c mice; assay: In vivo antitumor efficacy, subcutaneous B16-F10 melanoma model; design: species or system mouse; details: 14 days, from tumor weight
Experimental: The in vivo antitumor activity of compound 3g was evaluated using a mouse melanoma tumor model in BALB/c mice. Tumors were established by subcutaneous inoculation of B16F10 cells, and treatment was initiated when tumors reached a measurable size. Mice were administered vehicle control, paclitaxel (PTX, 10 mg/kg), or compound 3g (20 and 50 mg/kg) via intraperitoneal injection once daily for 14 consecutive days.
All animal procedures were approved by the Animal Ethics Committee of the Naval Medical University (permit number: EC11-055). Male BALB/c mice (6–8 weeks old, average initial body weight approximately 18–20 g) were purchased from Shanghai SLAC Laboratory Animal Co., Ltd. The inhibitory effect of compound 3g was evaluated using a subcutaneous B16-F10 melanoma xenograft model. Log-phase B16F10 cells were suspended in PBS and subcutaneously injected into mice (200 μL containing 8 × 10^5 cells per mouse) to establish tumors. Mice were randomly divided into control and treatment groups (n = 8). Compound 3g and paclitaxel were dissolved in a vehicle consisting of DMSO:PEG:Tween-80:saline (v/v/v/v, 5:35:10:50) to the desired concentrations. Treatments (paclitaxel, 10 mg/kg; compound 3g, 20 and 50 mg/kg, doses calculated on a body-weight basis) and vehicle were administered once daily via intraperitoneal injection for 14 consecutive days. Body weights were monitored throughout the study to assess acute toxicity. Tumor volumes were measured using calipers and calculated with the formula: a × b^2 × 0.5, where a and b represent the larger and smaller tumor diameters, respectively. On day 14, mice were sacrificed and tumors were excised and weighed. […] Major organs (liver and kidneys) were collected, fixed in 4% paraformaldehyde, processed into paraffin sections, stained with hematoxylin and eosin (H&E), and examined microscopically.
Murine melanoma B16-F10 xenograft tumors were established in mice, which were then administered vehicle, PTX (10 mg/kg per day), compound 3g (20 mg/kg per day), and compound 3g (50 mg/kg per day) for 14 days. […]

MCF-7 cells [3] = assay: Colony formation assay; type: cell-based, human; details: 24 h treatment
Experimental: To assess the long-term antiproliferative potential of compound 3g, a colony formation assay was conducted using MCF-7 breast cancer cells.
MCF-7 cells (1000 cells/well) were counted and seeded in 6-well plates. After being cultured for 24 h at 37 °C, the medium was replaced with medium added with compound 3g at the indicated concentration. After 24 h of treatment, the medium was changed to normal. After being cultured for another 10–14 days, the colonies were fixed with 4% paraformaldehyde for 30 min and stained with 0.1% crystal violet for 15 min. Following washing with PBS, the colonies were then photographed and quantified using Image J 1.54g.
Figure 3 Inhibition of MCF-7 Cell Colony Formation by Compound 3g. (A) 3g inhibited the colony formation of MCF-7 cells at different concentrations in a dose-dependent manner. (B) Colony units in the different groups after treatment with 3g. Number of colonies was counted after treating MCF-7 cells with the indicated concentration of compound 3g for 24 h (n = 3, * p < 0.05, ** p < 0.01 vs. DMSO control, one-way ANOVA).

MCF-7 cells [4] = assay: Transwell migration assay; type: cell-based, human; details: 24 h exposure, dose-dependent
Experimental: The impact of compound 3g on MCF-7 cell migration was assessed using wound healing and transwell migration assays.
MCF-7 cells were seeded into six-well culture plates at a density of 5 × 10^5 cells per well for 24 h. After treatment with compounds 3g at different concentrations for 24 h, cells were harvested and inoculated on transwell filters ([…] pore size, Millipore, Billerica, MA, USA) in 24-well culture plates. The cells in the top chamber were cultured in the FBS-free medium, and those in the bottom chamber were cultured in the medium containing 10% FBS. The plates were cultivated for an additional 48 h, and the cells that had migrated to the bottom of the top chambers were fixed with 4% paraformaldehyde and then stained with 0.1% crystal violet. Images of migrated cells were obtained using an inverted microscope (Olympus IX73, Olympus Corporation, Tokyo, Japan).
Figure 4 Effect of compound 3g on the migration of MCF-7 breast cancer cells. (A) 3g inhibited the migration of MCF-7 cells at different concentrations in a dose-dependent manner. Representative images of wound healing were captured by an inverted microscope at 0 h and 24 h treatment. Scale bar = 200 μm. (B) Wound closure percentages in the different groups after treatment with 3g for 24 h. (C) Results of the transwell migration assay. […]

T1 sequence (P02554 whole entry): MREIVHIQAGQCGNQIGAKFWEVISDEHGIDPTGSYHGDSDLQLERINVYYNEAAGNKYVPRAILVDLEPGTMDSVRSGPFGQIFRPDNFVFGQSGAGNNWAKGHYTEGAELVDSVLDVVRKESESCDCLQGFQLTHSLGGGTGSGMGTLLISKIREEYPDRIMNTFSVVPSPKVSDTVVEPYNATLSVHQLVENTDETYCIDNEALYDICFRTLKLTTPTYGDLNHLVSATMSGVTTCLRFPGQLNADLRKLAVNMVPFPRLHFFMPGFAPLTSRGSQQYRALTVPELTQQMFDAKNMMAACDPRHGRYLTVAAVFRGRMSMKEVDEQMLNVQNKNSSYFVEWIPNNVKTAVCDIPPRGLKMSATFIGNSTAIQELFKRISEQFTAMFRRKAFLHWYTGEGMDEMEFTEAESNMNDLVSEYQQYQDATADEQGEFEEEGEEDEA
T1 sequence (P02550 whole entry partner): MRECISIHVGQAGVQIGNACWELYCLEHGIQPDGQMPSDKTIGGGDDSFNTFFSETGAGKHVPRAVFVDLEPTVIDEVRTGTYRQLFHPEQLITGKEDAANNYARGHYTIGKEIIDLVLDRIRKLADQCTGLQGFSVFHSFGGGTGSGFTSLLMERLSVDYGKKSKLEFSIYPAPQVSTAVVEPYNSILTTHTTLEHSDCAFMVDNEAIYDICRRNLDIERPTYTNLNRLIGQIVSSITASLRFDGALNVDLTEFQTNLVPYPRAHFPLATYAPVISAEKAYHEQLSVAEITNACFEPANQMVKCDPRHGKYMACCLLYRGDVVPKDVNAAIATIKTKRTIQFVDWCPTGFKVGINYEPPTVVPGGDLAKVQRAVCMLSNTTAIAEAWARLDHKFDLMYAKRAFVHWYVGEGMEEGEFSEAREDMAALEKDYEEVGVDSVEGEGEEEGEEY

SMILES: COc1cc(-n2ccc3ccc(-c4ccc(C)c(C#N)c4)cc32)cc(OC)c1OC [3g, 2-methyl-5-(1-(3,4,5-trimethoxyphenyl)-1H-indol-6-yl)benzonitrile]
- KD [1]: low micromolar range
- Kd [1]: 13 ± 1.17 µM
- tumor growth inhibition (TGI) ([2]; 20 mg/kg i.p. once daily): 23.3% and 23.34%
- tumor growth inhibition (TGI) ([2]; 50 mg/kg i.p. once daily): 44.2% and 44.18%
- clonogenic survival / colony formation (MCF-7 cells [3]; 0.1 μM): moderate reduction
- colony formation (MCF-7 cells [3]; 1 μM): progressively greater inhibition
- colony formation (MCF-7 cells [3]; 10 μM): near-complete suppression
- number of cells traversing the membrane (MCF-7 cells [4]): significant reduction

— paper PMC12693167, “Design, Synthesis and Anticancer Activity of 6-Substituted-1-(3,4,5-trimethoxyphenyl)-1H-indole Against Tubulin Polymerisation” (Molecules, 2025)
